Reference: patent US20030109582A1, “Methods and compositions for stimulating secretions from paneth cells” (priority 2001, published 2003)

Key:
[1] = tested on: Human Paneth cells (isolated intact human crypts from ileum); secretions tested on Salmonella typhimurium phoP-; assay: human Paneth cell secretion assay (bactericidal activity of crypt secretions); type: cell-based; settings: for % Bacterial Cell Killing: S. typhimurium
Source text: An assay was developed utilizing Human Paneth cells, obtained from biopsy material. Substances were screened in vitro, by exposing the isolated human tissue material briefly, and assessing the release of antibiotic activity.
A human Paneth cell secretion assay was developed using isolated intact human crypts from ileum obtained after bowel surgery, following published techniques. About 700 isolated crypts obtained by disruption with EDTA, as estimated using a hemocytometer, were transferred into microfuge tubes. Crypts were then incubated in minimal essential media containing non-essential amino acids, with or without various substances (such as isoleucine) in a total volume of 0.5 ml for 30 min or 1 hour at 37° C. After incubation the tissue suspension was spum, and the supernatants collected 10 microliter aliquots were then mixed with either 500 or 1000 colony forming units (cfu) of Salmonella typhimurium phoP- and incubated for 1 hour at 37° C. Surviving bacteria were quantitated by plating on nutrient agar. Bactericidal assays were conducted in triplicate. Data were expressed as the percent bacteria killed under experimental conditions relative to those recovered from controls.

Crohn's disease patients = assay: L-isoleucine administration to Crohn's disease patients (CDAI, abdominal symptoms); type: in vivo, human; settings: Four grams/day oral, 4 weeks
Procedure: L-isoleucine was administered to nine volunteer Crohn's disease patients with mild abdominal symptoms. Four grams/day of powdered L-isoleucine divided into two doses was orally administered for 4 weeks. The CDAI (Crohn's disease activity index—Best W, Beckel J, Singleton J, Kern F J, Development of a Crohn's Disease Activity Index: National Cooperative Crohn's Disease Study. Gastroenterology 1976; 70:439-44) was calculated at the beginning and following the fourth week of the L-isoleucine administration period. All medication regiments were fixed throughout the study period.

fecal Lactobacilli = assay: population density of viable Lactobacilli in stools of individuals with Crohn's disease; type: in vivo, human; settings: after 1 week of L-isoleucine administration (dosed as in Example 2) added to low-residual formula diet; 9 hospitalized Crohn's disease individuals
Procedure: The population density of viable Lactobacilli in the stools of a group of 9 hospitalized individuals with Crohn's disease was measured before and after a course of L-isoleucine administration. Subjects in this group had been supported nutritionally exclusively by total parenteral nutrition (TPN) for more than one month. One week after a low-residual formula diet was introduced, L-isoleucine was added to the diet (dosed as in Example 2) during the fmal week of hospitalization. Yogurt and other fermented products were restricted as were antibiotics.

Structure (SMILES): CC[C@H](C)[C@H](N)C(=O)O [isoleucine, L(+)isoleucine]
- Bactericidal activity in secretions against S. typhimurium ([1]; crypts exposed to 250 microgram/ml for 1 hour): detected
- % Bacterial Cell Killing ([1]; crypts exposed to L(+)isoleucine 250 microgram/ml for 1 hour, relative to controls): 63.7%
- Surviving Bacteria ([1]; crypts exposed to L(+)isoleucine 250 microgram/ml for 1 hour, supernatant incubated with S. typhimurium 1 hour): 140 ± 23
- isoleucine-induced secretion effect, dose dependence ([1]; human Paneth cells, Salmonella typhimurium killing): dose dependent
- % Bacterial Cell Killing ([1]; isoleucine 5 μg/ml, 30 minutes): 4.1%
- % Bacterial Cell Killing ([1]; isoleucine 50 μg/ml, 30 minutes): 22.5%
- % Bacterial Cell Killing ([1]; isoleucine 500 μg/ml, 30 minutes): 51.7%
- frequency of diarrhea (Crohn's disease patients; Crohn's disease patients): gradually decreased
- stool consistency (Crohn's disease patients; Crohn's disease patients): improved
- mean CDAI at fourth week (Crohn's disease patients; two doses, nine Crohn's disease patients, mean CDAI at beginning 120): 90
- mean concentration of fecal Lactobacilli (fecal Lactobacilli): significantly increased
